EC50 and Emax data for 30 compounds are collected here from US20260167615A1, “COMPOUNDS AND COMPOSITIONS AS GPR52 MODULATORS” (Neurocrine Biosciences, Inc., priority 2022, published 2026).

In the assay the target is recombinant human GPR52 (Homo sapiens, UniProt Q9Y2T5). The experiment in a line: HTRF cAMP assay, GPR52 activity (Example A). Type of assay: cell-based. The settings on record: for Emax: maximum cAMP at 10 μM or 31.6 μM test compound, as percentage of Emax of control compound 4-(3-(3-fluoro-5-(trifluoromethyl)benzyl)-5-methyl-4,5-dihydro-1H-1,2,4-triazol-1-yl)-2-methylbenzamide. The method, then: Compounds of Formula I were assessed for their ability to modulate GPR52 activity. HTRF CAMP assays were performed using a commercially available assay kit (CAMP Gs HiRange HTRF®, CisBio). Controls and compounds were solubilized in DMSO and 62.5 nanoliters of the diluted compounds were transferred into 384-well NBS assay plates via acoustic or precision low-volume dispensing. Compounds were further diluted to 1× with the addition of 20,000 cells per well. Flp-In™—CHO cells that stably express recombinant human GPR52 were used in the assay.
Cells were harvested with cell stripper and resuspended in stimulation buffer. After thirty minutes incubation at room temperature, detection reagents were added to each well. Plates were then incubated for an additional 30 minutes at room temperature. CAMP produced by the cells during the first incubation period competes with d2-labeled CAMP for binding to an anti-cAMP monoclonal antibody labeled with europium cryptate. The measured signal was inversely proportional to the concentration of cAMP produced by the cells and this signal was quantified using a PHERAstar® multi-mode plate reader.
Dose-response curves were generated from the HTRF counts that have been transformed based on a CAMP referenced curve, and then normalized to the positive control. EC50 values were obtained using a nonlinear regression curve-fitting program. […] The Emax (Table 13) is the maximum amount of cAMP (nM) produced by incubation of the cells with 10 μM or 31.6 μM of a test compound. The compound is defined by the top plateau of the sigmoid curve fit. The curve is then normalized to a control compound, in this case 4-(3-(3-fluoro-5-(trifluoromethyl)benzyl)-5-methyl-4,5-dihydro-1H-1,2,4-triazol-1-yl)-2-methylbenzamide (Tokumaru, K., et al., “Design, synthesis, and pharmacological evaluation of 4-azolyl-benzamide derivatives as novel GPR52 agonists”, Bioorganic & Medicinal Chemistry, Volume 25, Issue 12, June 2017, pages 3098-3115), and expressed as a percentage of the Emax of that control compound.
In general terms: Time-resolved FRET reads energy transfer from a long-lived donor to a nearby acceptor.

[1] abbreviates: average EC50 (n=1 to 15), Flp-In-CHO cells stably expressing recombinant human GPR52, cAMP HTRF, read-out: EC50 (N=).

Where two headings read alike, the source gives them in different places.

Chain of recombinant human GPR52 (Q9Y2T5 whole entry): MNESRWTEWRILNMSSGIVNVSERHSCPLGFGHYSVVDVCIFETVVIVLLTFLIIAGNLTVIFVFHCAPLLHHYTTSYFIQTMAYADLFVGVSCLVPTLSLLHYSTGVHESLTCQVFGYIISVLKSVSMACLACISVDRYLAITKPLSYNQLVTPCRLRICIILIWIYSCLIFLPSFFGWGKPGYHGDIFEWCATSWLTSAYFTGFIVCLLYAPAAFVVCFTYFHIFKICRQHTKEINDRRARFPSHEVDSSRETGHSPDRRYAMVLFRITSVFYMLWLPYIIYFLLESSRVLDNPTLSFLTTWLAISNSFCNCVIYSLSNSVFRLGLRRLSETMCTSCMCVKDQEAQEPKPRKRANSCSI

Take `Cc1cc(-c2cccc(Oc3cnc4c(C)nn(C)c4c3)c2)ccc1C(N)=O` [Example 31, 3′-((1,3-dimethyl-1H-pyrazolo[4,3-b]pyridin-6-yl)oxy)-3-methyl-[1,1′-biphenyl]-4-carboxamide]: the Emax (commonly the greatest response seen or fitted, relative to the assay's reference) worked out at 88%. Besides, the EC50 (in general, the midpoint of the concentration-response curve) under setting [1] lay in the range of 101 to 1000 nM.

For `CCc1cc(-c2cc(Oc3ccc4ncccc4c3)ccn2)ccc1C(N)=O` [Example 70, 2-ethyl-4-(4-(quinolin-6-yloxy)pyridin-2-yl)benzamide], the Emax turned out to be 126%. Besides, under setting [1], the EC50 fell in the range of 101 to 1000 nM.

On to `Cc1nc2cc(Oc3ccnc(-c4ccc(C(N)=O)c(C)c4)c3)ccc2s1` [Example 86, 2-methyl-4-(4-((2-methylbenzo[d]thiazol-5-yl)oxy)pyridin-2-yl)benzamide], for which the Emax was determined as 86%. Under setting [1], the EC50 was in the range of 101 to 1000 nM.

Turning to `Cc1cc(-c2cc(Oc3cnc4cc(F)c(F)cc4c3)ccn2)ccc1C(N)=O` [Example 114, 4-(4-((6,7-difluoroquinolin-3-yl)oxy)pyridin-2-yl)-2-methylbenzamide], the Emax was determined as 50%. In addition, under setting [1], the EC50 was in the range of 25 to 100 nM.

In the case of `CCc1cc(-c2cc(Oc3ccc4ncc(F)cc4c3)ccn2)ccc1C(N)=O` [Example 95, 2-ethyl-4-(4-((3-fluoroquinolin-6-yl)oxy)pyridin-2-yl)benzamide], the Emax turned out to be 138%. In addition, under setting [1], the 50% effective concentration (EC50) was in the range of 101 to 1000 nM.

For `CCc1cc(-c2cccc(Oc3cnc4c(C)nn(C)c4c3)c2)ccc1C(N)=O` [Example 32, 3′-((1,3-dimethyl-1H-pyrazolo[4,3-b]pyridin-6-yl)oxy)-3-ethyl-[1,1′-biphenyl]-4-carboxamide], the Emax turned out to be 103%. For the same compound, the EC50 under setting [1] lay in the range of 101 to 1000 nM.

On to `CNC(=O)c1ccc(-c2cc(Oc3ccc4cnn(C)c4c3)ccn2)cc1C` [Example 62, N,2-dimethyl-4-(4-((1-methyl-1H-indazol-6-yl)oxy)pyridin-2-yl)benzamide], for which the Emax turned out to be 84%. Also, the 50% effective concentration (EC50) under setting [1] was 101 to 1000 nM.

In the case of `CCc1cc(-c2cc(Oc3cc(F)c4ncc(F)cc4c3)ccn2)ccc1C(N)=O` [Example 120, 4-(4-((3,8-difluoroquinolin-6-yl)oxy)pyridin-2-yl)-2-ethylbenzamide], the maximum response (Emax) is 155%. For the same compound, the EC50 under setting [1] fell in the range of 101 to 1000 nM.

On to `Cc1cnc2ccc(Oc3ccnc(-c4ccc(C(N)=O)c(C)c4)c3)cc2c1` [Example 108, 2-methyl-4-(4-((3-methylquinolin-6-yl)oxy)pyridin-2-yl)benzamide], for which the Emax was determined as 150%. Besides, under setting [1], the EC50 fell in the range of 101 to 1000 nM.

Take `Cc1cc(-c2nccc(Oc3ccc4cnn(C)c4c3)n2)ccc1C(N)=O` [Example 14, 2-methyl-4-(4-((1-methyl-1H-indazol-6-yl)oxy)pyrimidin-2-yl)benzamide]: the Emax was 93%. Further, under setting [1], the concentration for a half-maximal effect (EC50) fell in the range of 101 to 1000 nM.

`CCc1cc(-c2cc(Oc3cnc4ccc(F)cc4c3)ccn2)ccc1C(N)=O` [Example 104, 2-ethyl-4-(4-((6-fluoroquinolin-3-yl)oxy)pyridin-2-yl)benzamide]: the Emax was 110%. For the same compound, the EC50 under setting [1] lay within 101 to 1000 nM.

Turning to `Cc1cnc(-c2ccc(C(N)=O)c(C)c2)cc1Oc1ccc2cnn(C)c2c1` [Example 50, 2-methyl-4-(5-methyl-4-((1-methyl-1H-indazol-6-yl)oxy)pyridin-2-yl)benzamide], the Emax was found to be 78%. The half-maximal effective concentration (EC50) under setting [1] was in the range of 101 to 1000 nM.

In the case of `CCc1cc(-c2cc(Oc3cnc4c(c3)c(C)nn4C)ccn2)ccc1C(N)=O` [Example 55, 4-(4-((1,3-dimethyl-1H-pyrazolo[3,4-b]pyridin-5-yl)oxy)pyridin-2-yl)-2-ethylbenzamide], the Emax turned out to be 108%. Besides, the EC50 under setting [1] is 25 to 100 nM.

With `CCc1cc(-c2cc(Oc3cnc4ccc(Cl)cc4c3)ccn2)ccc1C(N)=O` [Example 110, 4-(4-((6-chloroquinolin-3-yl)oxy)pyridin-2-yl)-2-ethylbenzamide], the maximum response (Emax) was 137%. For the same compound, the EC50 under setting [1] was in the range of 101 to 1000 nM.

Turning to `Cc1cc(-c2cc(Oc3cnc4ccc(F)cc4c3)ccn2)ccc1C(N)=O` [Example 105, 4-(4-((6-fluoroquinolin-3-yl)oxy)pyridin-2-yl)-2-methylbenzamide], the maximum response (Emax) was determined as 51%. Besides, under setting [1], the EC50 fell in the range of 101 to 1000 nM.

On to `CCNC(=O)c1ccc(-c2cc(Oc3ccc4cnn(C)c4c3)ccn2)cc1C` [Example 63, N-ethyl-2-methyl-4-(4-((1-methyl-1H-indazol-6-yl)oxy)pyridin-2-yl)benzamide], for which the maximal response (Emax) is 70%. Further, the EC50 under setting [1] fell in the range of 101 to 1000 nM.

`CCc1cc(-c2cc(Oc3ccc4c(C)nn(C(F)(F)F)c4c3)ccn2)ccc1C(N)=O` [Example 134, 2-ethyl-4-(4-((3-methyl-1-(trifluoromethyl)-1H-indazol-6-yl)oxy)pyridin-2-yl)benzamide]: the Emax is 117%. Besides, under setting [1], the EC50 is 101 to 1000 nM.

For the compound `CCc1cc(-c2cc(Oc3cc(F)c4cnn(C)c4c3)cc3nccn23)ccc1C(N)=O` [Example 72, 2-ethyl-4-(7-((4-fluoro-1-methyl-1H-indazol-6-yl)oxy)imidazo[1,2-a]pyridin-5-yl)benzamide], the Emax is 69%. Further, the EC50 under setting [1] was 25 to 100 nM.

As to `Cc1cc(-c2cc(Oc3ccn4nccc4c3)ccn2)ccc1C(N)=O` [Example 13, 2-methyl-4-(4-(pyrazolo[1,5-a]pyridin-5-yloxy)pyridin-2-yl)benzamide], the Emax worked out at 97%. The EC50 under setting [1] fell in the range of 101 to 1000 nM.

`Cc1cc(-c2cc(Oc3ccc4c(c3)CCC4=O)ccn2)ccc1C(N)=O` [Example 84, 2-methyl-4-(4-((1-oxo-2,3-dihydro-1H-inden-5-yl)oxy)pyridin-2-yl)benzamide]: the Emax is 123%. Further, the EC50 under setting [1] was in the range of 101 to 1000 nM.

In the case of `CCc1cc(-c2cc(Oc3cnc4c(C)nn(C)c4c3)cc(N)n2)ccc1C(N)=O` [Example 16, 4-(6-amino-4-((1,3-dimethyl-1H-pyrazolo[4,3-b]pyridin-6-yl)oxy)pyridin-2-yl)-2-ethylbenzamide], the maximal effect (Emax) turned out to be 107%. Besides, the EC50 under setting [1] was 101 to 1000 nM.

`CCc1cc(-c2cccc(Oc3ccc4cnn(C)c4c3)c2)ccc1C(N)=O` [Example 52, 3-ethyl-3′-((1-methyl-1H-indazol-6-yl)oxy)-[1,1′-biphenyl]-4-carboxamide]: the maximum response (Emax) amounted to 86%. The 50% effective concentration (EC50) under setting [1] was in the range of 1000 to 2000 nM.

As to `CCc1cc(-c2cc(Oc3cnc4c(C(F)(F)F)nn(C)c4c3)ccn2)ccc1C(=O)NC` [Example 61, 2-ethyl-N-methyl-4-(4-((1-methyl-3-(trifluoromethyl)-1H-pyrazolo[4,3-b]pyridin-6-yl)oxy)pyridin-2-yl)benzamide], the Emax worked out at 81%. For the same compound, the EC50 under setting [1] lay in the range of 101 to 1000 nM.

Take `Cc1cc(-c2cc(Oc3ccc4c(C)nn(C(F)(F)F)c4c3)ccn2)ccc1C(N)=O` [Example 135, 2-methyl-4-(4-((3-methyl-1-(trifluoromethyl)-1H-indazol-6-yl)oxy)pyridin-2-yl)benzamide]: the Emax is 115%. Also, the EC50 under setting [1] is 101 to 1000 nM.

In the case of `CCc1cc(-c2cc(Oc3cc(F)c4c(C)nn(C)c4c3)ccn2)ccc1C(N)=O` [Example 38, 2-ethyl-4-(4-((4-fluoro-1,3-dimethyl-1H-indazol-6-yl)oxy)pyridin-2-yl)benzamide], the Emax stood at 104%. The EC50 under setting [1] lay in the range of 25 to 100 nM.

Take `CNc1cc(-c2cc(Oc3ccc4c(C)nn(C)c4c3)ccn2)ccc1C(N)=O` [Example 35, 4-(4-((1,3-dimethyl-1H-indazol-6-yl)oxy)pyridin-2-yl)-2-(methylamino)benzamide]: the Emax came out at 85%. The EC50 under setting [1] is 101 to 1000 nM.

Take `Cc1cc(-c2ccnc(Oc3ccc4c(c3)c(C)nn4C)c2)ccc1C(N)=O`: the EC50 (comparison of position of the nitrogen in the pyridine ring relative to the oxygen linker, read-out: Activity EC50) worked out at 2040 nM.

Turning to `CCc1cc(-c2cc(Oc3cnc4c(F)nn(C)c4c3)ccn2)ccc1C(N)=O` [Example 131, 2-ethyl-4-(4-((3-fluoro-1-methyl-1H-pyrazolo[4,3-b]pyridin-6-yl)oxy)pyridin-2-yl)benzamide], the Emax amounted to 114%. Besides, the concentration giving a half-maximal response (EC50) under setting [1] lay in the range of 101 to 1000 nM.

As to `Cc1cc(-c2cc(Oc3ccc4c(C)nn(C)c4c3)ccn2)ccc1C(N)=O` [Example 25, 4-(4-((1,3-dimethyl-1H-indazol-6-yl)oxy)pyridin-2-yl)-2-methylbenzamide], the Emax is 103%. The EC50 (Flp-In-CHO cells expressing human GPR52, read-out: average EC50) stood at 83 nM. Moreover, under setting [1], the EC50 was in the range of 25 to 100 nM.

In the case of `Cc1cc(-c2cncc(Oc3ccc4cnn(C)c4c3)n2)ccc1C(N)=O` [Example 11, 2-methyl-4-(6-((1-methyl-1H-indazol-6-yl)oxy)pyrazin-2-yl)benzamide], the Emax came out at 101%. Moreover, the EC50 under setting [1] lay in the range of 101 to 1000 nM.
